{"source": "patent US11458212B2", "about": "“Molecular imaging of cancer cells in vivo” (H. Lee Moffitt Cancer Center and Research Institute, Inc., priority 2011, dated 2022)", "test_system": "parental HEK293 cells", "assay": "TLR2 functional bioassay in parental HEK293 cells (negative control)", "type": "cell-based", "conditions": "ligand stimulated HEK293 cells", "text": "In Vitro TLR2 Functional Bioassay The in vitro TLR2 functional bioassay was developed and optimized for use in screening soluble compound libraries to identify both TLR2 agonists and antagonists. In this study, the TLR2 functional bioassay was used as a fast high throughput screening to identify TLR2 agonist ligands by measuring the inducing activity of NF-κB. HEK293/hTLR2 cells, highly overexpressing human TLR2, were used along with the parental HEK293, cells as a negative control. […] On day 4 after 24 hrs of peptide stimulation, luciferase induced activity by the induction of NF-κB was measured. […] The luminescence intensity was measured using the standard luminescence protocol on a Victor™ X4 plate-reader equipped with a plate stacker for readout of multiple plates at a time (PerkinElmer, Waltham, Mass.). […] Data were analyzed with GraphPad Prism software and curves were generated with the appropriate nonlinear fit regression analysis.\nThe in vitro TLR2 functional bioassay was developed and optimized for use in high-throughput screening of soluble compound libraries to identify both TLR2 agonists and antagonists. […] On day 4 after 24 h of peptide stimulation, luciferase induced activity by the induction of NF-κB was measured. […]", "note": "Entries after “also recorded” stand apart in the source; their conditions may differ.", "data": [{"smiles": "CCCCCCCCCCCCCCCC(=O)OCC(CSC[C@H](N)C(=O)N[C@@H](CO)C(=O)N[C@@H](CCCCN)C(=O)N[C@@H](CCCCN)C(=O)N[C@@H](CCCCN)C(=O)N[C@@H](CCCCN)C(=O)O)OC(=O)CCCCCCCCCCCCCCC", "note": "(mixture of isomers) [Pam2CSK4, S-[2,3-bis(palmitoyloxy)-(2RS)-propyl]-[R]-cysteinyl-[S]-seryl-[S]-lysyl-[S]-lysyl-[S]-lysyl-[S]-lysine, reference compound]", "values": [{"measurement": "NF-κB induced luciferase activity in non-expressing TLR2 cell line", "value": "did not exhibit significant NF-κB induced luciferase activity"}]}, {"smiles": "CCCCCCCCCCCCCCCC(=O)N[C@@H](CSCC(COC(=O)CCCCCCCCCCCCCCC)OC(=O)CCCCCCCCCCCCCCC)C(=O)N[C@@H](CO)C(=O)N[C@@H](CCCCN)C(=O)N[C@@H](CCCCN)C(=O)N[C@@H](CCCCN)C(=O)N[C@@H](CCCCN)C(=O)O", "note": "(mixture of isomers) [Pam3CSK4, N-Palmitoyl-S-[2,3-bis(palmitoyloxy)-(2RS)-propyl]-[R]-cysteinyl-[S]-seryl-[S]-lysyl-[S]-lysyl-[S]-lysyl-[S]-lysine, reference compound]", "values": [{"measurement": "NF-κB induced luciferase activity in non-expressing TLR2 cell line", "value": "did not exhibit any significant NF-κB luciferase activity; also recorded: did not exhibit significant NF-κB induced luciferase activity; also recorded: no measurable luminescence; also recorded: No activity was observed"}]}]}
